In patent US7651979B2, “Coordination complexes, and methods for preparing by combinatorial methods, assaying and using the same” (priority 2000, dated 2010):

Legend:
BlaM HeLa cells [1] = type: cell-based, human; details: for response of independently synthesized compounds on the BlaM HeLa assay: pure compounds made by non-combinatorial means; for ratio of green to blue fluorescence with increasing concentration: increasing concentrations, FIG. 7, twenty-eight hours
Text: Another example of a subject assay is termed the CCF2/AM assay. The CCF2/AM dye is an effective assay for the presence of β-lactamase, and thus may be used as a sensor for its transcription. See, for example, U.S. Pat. No. 5,955,604 and WO 9630540. This screen in based on a cellular response that is relatively unique to cisplatin. […] See Sandman et al., Chem. Bio. 6:541-51 (1999). […] In addition, the rapid inhibition of transcription, which occurs prior to apoptosis, may be evaluated over a short period of time. In the BlaM HeLa cell line used herein, the inhibition of transcription coupled with the half-life of ambient β-lactamase results in a one-day screening protocol.
To screen drug candidates for transcription inhibition activity, genetically modified HeLa cells developed by Aurora Biosciences were exposed to the products from the above parallel reactions. BlaM HeLa cells have been permanently transfected with a vector encoding the 29-kD plasmid encoded TEM-1 β-lactamase from E. coli. This enzyme is the product of the ampicillin resistance gene Amp^r, and is not normally expressed in mammalian cells.
BlaM HeLa cells were grown up from stock provided by Aurora Biosciences using standard cell culture techniques. This cell line was grown in 10 cm plates by using a modified Dulbecco's Modified Eagle Medium supplemented with 10% fetal bovine serum, 2 mM L-glutamine, 1.0 mM sodium pyruvate, and 0.1 mM non-essential amino acids. Bacterial growth was inhibited through intermittent exposure to […], and selection of the BlaM cells was maintained through the weekly administration of 800 μg/mL G418 (geneticin).
For plate reader-based experiments, HeLa cells were distributed into black, clear-bottom, 96-well plates (Corning). Nearly confluent 10 cm plates (60-70%) were trypsinized and distributed (100 μL) into the 96-well plates, and allowed to adhere and grow for approximately 18 h. Cells were then washed with 100 μL PBS and provided with fresh media prior to treatment. After treatment, the cells were exposed to the CCF2/AM dye for one hour, and measured for fluorescence on the fmax plate reader. The cellular response to platinum compounds was determined by taking the ratio of the absolute value of measured fluorescence at 530 nm (green) over the absolute value of measured fluorescence at 460 nm (blue). This response is corrected for the background of the microplate.
Concentration and time-dependent studies were conducted with cisplatin and other pure platinum compounds to determine the response of the cells to platinum chemotherapeutics. For the library screen, cells were exposed to 30 μM of platinum product from the reactions for 28 hours. 72 reactions were screened manually per day, with each compound measured in triplicate. […] After the exposure period the cells were worked up using the CCF2/AM dye protocol, and hits were determined by their response related to that of a cisplatin standard at the same concentration. Initial hits were then rescreened for dose dependent toxicity, over a range from 0 to 75 μM concentrations.

BlaM HeLa cells [2] = assay: Northern blotting of RNA from BlaM HeLa cells; type: cell-based, human; details: 30 μM, 12 hours, FIG. 5
Method: Two 10 cm plates of BlaM HeLa cells were grown to 60-70% confluence, and one treated with 30 μM cisplatin for twelve hours. After this treatment, RNA was extracted from the cells on each plate using an Ambion kit and quantified by UV-visible spectroscopy. The RNA was electrophoresed on an agarose-formaldehyde gel, transferred to a nylon membrane, and crosslinked with a Stratalinker UV device by using standard procedures. This blot was probed with ^32P labeled BlaM fragment from pcDNA-3 (Aurora Biosciences) and 7S RNA from pUC(Amp), and quantified by a Biorad phosphorimager apparatus.

Q: How did the “response of independently synthesized compounds on the BlaM HeLa assay” value (shortened to “response … on the BlaM HeLa assay”) (BlaM HeLa cells [1]) turn out when `[NH2][Pt]([Cl])([Cl])[NH]C1CCC1` [ammine-cyclobutylamine complex, cis-ammine(cyclobutylamine)PtCl2] was run?
A: The value was “positive response”.

Q: How did the “response … on the BlaM HeLa assay” value (BlaM HeLa cells [1]) turn out when `[Cl][Pt]([Cl])([NH]C1CCC1)[NH]C1CCC1` [bis-cyclobutylamine species, cis-(cyclobutylamine)2PtCl2] was run?
A: Its value is “positive response”.

Q: `CC(C)N.CC(C)N.[Cl-].[Cl-].[Pt+2]` [cis-(isopropylamine)2PtCl2] was tested. Which “response … on the BlaM HeLa assay” value (BlaM HeLa cells [1]) did it give?
A: Its value is “positive response”.

Q: `Cc1cccnc1N.N.[Cl][Pt][Cl]` [cis-ammine(2-amino-3-picoline)dichloroplatinum(II)] was tested. Which “response … on the BlaM HeLa assay” value (BlaM HeLa cells [1]) did it give?
A: The value was “positive response”.

Q: With `N.N.[Cl][Pt][Cl]` [cisplatin, cis-diamminedichloroplatinum(II)] as the compound, how does the “response (ratio of fluorescence at 530 nm (green) over 460 nm (blue)) in initial screen” value (BlaM HeLa cells [1]; 30 μM, 28 hours, triplicate, response above 0.092 considered a hit) read?
A: Its value is 0.092.

Q: What about the “ratio of green to blue fluorescence with increasing concentration” value (BlaM HeLa cells [1]) of the same compound?
A: The value was “definite increase”.

Q: And the “time at which cell response peaked” value (BlaM HeLa cells [1]; time dependence, FIG. 8)?
A: Its value is “approximately 20 hours”.

Q: And the “transcription of both the BlaM vector and control 7S RNA” value (BlaM HeLa cells [2])?
A: Its value is “decrease in transcription”.

Q: For `O=[N+]([O-])[O-].[Ag+]` [silver nitrate], which transcription inhibition response (BlaM HeLa cells [1]; in media, same concentration as cisplatin (~30 μM), FIG. 9) is on record?
A: The transcription inhibition response was “does not give a transcription inhibition response”.

Q: What does the source list for `N.N.[Cl][Pt][Cl]` [trans-DDP, trans-diamminedichloroplatinum(II)]?
A: ratio of green to blue fluorescence with increasing concentration (BlaM HeLa cells [1]): no increase; cell response over time (BlaM HeLa cells [1]; time dependence, any of the times measured, FIG. 8): no cell response
